Read-outs that look alike come from different tables or passages of the source.
Molecular target: T1, HIV-1 RT (Human immunodeficiency virus type 1 group M subtype B, UniProt P03367)
T1 construct: Reverse transcriptase enzyme from the LAV strain of Human Immunodeficiency Virus (HIV-1) (1) was isolated from the bacterial strain JM109; made in house; host or cells: E. coli JM109, clone pBRTprt1+ in vector pIBI21, lac promoter, IPTG induction
Assay: Reverse Transcriptase (RT) Assay: inhibition of RNA-dependent DNA polymerase activity
Type: biochemical
Conditions: read-out: RT Inhibition % @ 10µg/ml
Description: Utilizing the Reverse Transcriptase (RT) Assay descibed below, compounds can be tested for their ability to inhibit the RNA-dependent DNA polymerase activity of HIV-1 RT. Certain specific compounds of formula I described in the Examples which appear below, were so tested. The above-described compounds of formula IA were also so tested.
Among the enzymes for which Human Immunodeficiency Virus (HIV-1) encodes is a reverse transcriptase (1), so-named because it transcribes a DNA copy from an RNA template. This activity can be quantitatively measured in a cell-free enzyme assay which has been previously described (2), and is based upon the observation that reverse transcriptase is able to use a synthetic template [poly r(C) primed with oligo d(G)] to transcribe a radio-labelled, acid-precipitable DNA strand utilizing ^3H-dGTP as a substrate.
Reverse transcriptase enzyme from the LAV strain of Human Immunodeficiency Virus (HIV-1) (1) was isolated from the bacterial strain JM109 (3) expressing the DNA clone pBRTprt1+ (2) which is under the control of the lac promoter in the expression vector pIBI21 (4). An overnight culture grown in 2XYT medium (37°C, 225 rpm) (5) supplemented with 100 µg/ml ampicillin for positive selection is inoculated at a 1:40 dilution into M9 medium supplemented with 10µg/ml thiamine, 0.5% casamino acids, and 50 µg/ml ampicillin (5). The culture is incubated (37°C, 225 rpm) until it reaches an OD540 of 0.3-0.4. At that time the repressor inhibitor IPTG (isopropyl b-D-thiogalactopyranoside) is added to 0.5mM and the mixture is incubated for 2 additional hours. Bacteria are pelleted, resuspended in a 50mM Tris, 0.6mM EDTA, 0.375M NaCl buffer and digested by the addition of lysozyme (1mg/ml) for 30 minutes on ice. The cells are lysed by the addition of 0.2% NP-40 and brought to 1M NaCl.
After removal of the insoluble debris by centrifugation, the protein is precipitated by the addition of 3 volumes of water-saturated ammonium sulfate. The enzyme is pelleted, resuspended in RT buffer (50mM Tris pH 7.5. 1mM EDTA, 5mM DTT, 0.1% NP-40, 0.1M NaCl, and 50% glycerol), and stored at -70°C for further use.
The 2X concentrated stock reaction mixture is aliquoted and stored at -20°C. The mixture is stable and thawed for use in each assay. This enzyme assay has been adapted to a 96 well microtiter plate system, and has been previously described (6). Tris buffer (50 mM, pH 7.4), vehicle (solvent diluted to match the compound dilution), or compounds in vehicle are dispensed into 96-well microtiter plates (10µl/well: 3 wells/compound). The HIV-1 RT enzyme is thawed and diluted in 50mM Tris pH 7.4 so that fifteen µl of diluted enzyme contain 0.001 Unit (one unit is that amount of enzyme to transform 1 micromole of substrate per minute at 25°C) and 15µl are dispensed per well. Twenty µl of 0.12 - 0.5M EDTA are added to the first three wells of the microtiter plate. EDTA chelates the Mg^++ present and prevents reverse transcription. This group serves as background polymerization which is subtracted from all other groups. Twenty-five ul of the 2X reaction mixture are added to all wells and the assay is allowed to incubate at room temperature for 60 minutes. The assay is terminated by precipitating the DNA in each well with 50µl of trichloracetic acid (TCA) (10% w/v) in sodium pyrophosphate (1% w/v). The microtiter plate is incubated for 15 minutes at 4°C and the precipitate is fixed onto #30 glass fiber paper (Schleicher & Schuell) using a Skatron semi-automatic harvester. The filters are then washed with additional TCA (5%) containing sodium pyrophosphate (1%), rinsed with aqueous ethanol (70%), dried, and transferred to scintillation vials (6). Each vial receives 2 mls of scintillation cocktail and is counted in a Beckman beta counter. […]

[1] = 10µg/ml, Table I, compounds of formula I

SMILES | inhibition at 10 µg/mL [1] [%] | inhibition at 10 µg/mL [%]
CN1c2ccccc2NC(=O)c2cccnc21 [Example 1, 6,11-Dihydro-11-methyl-5H-pyrido[2,3-b][1,5]benzodiazepin-5-one] | 37 | 
CCCN1c2ccccc2N(C)C(=O)c2cccnc21 [Example 3, 6,11-Dihydro-6-methyl-11-propyl-5H-pyrido[2,3-b][1,5]benzodiazepin-5-one] | 92 | 
CCCCN1c2ccccc2N(C)C(=O)c2cccnc21 [Example 6, 11-Butyl-6,11-dihydro-6-methyl-5H-pyrido[2,3-b][1,5]-benzodiazepin-5-one] | 46 | 
CN1C(=O)c2cccnc2N(CCO)c2ccccc21 [Example 7, 6,11-Dihydro-11-(2-hydroxyethyl)-6-methyl-5H-pyrido[2,3-b][1,5]benzodiazepin-5-one] | 50 | 
CN1C(=O)c2cccnc2N(C)c2ccccc21 [Example 10, 6,11-Dihydro-6,11-dimethyl-5H-pyrido[2,3-b][1,5]benzodiazepin-5-one] | 68 | 
CCN1C(=O)c2cccnc2N(C)c2ccccc21 [Example 11, 6,11-Dihydro-6-ethyl-11-methyl-5H-pyrido[2,3-b][1,5]benzodiazepin-5-one] | 88 | 
CCCN1C(=O)c2cccnc2N(C)c2ccccc21 [Example 12, 6,11-Dihydro-11-methyl-6-propyl-5H-pyrido[2,3-b][1,5]benzodiazepin-5-one] | 89 | 
CC(C)N1C(=O)c2cccnc2N(C)c2ccccc21 [Example 13, 6,11-Dihydro-11-methyl-6-methylethyl-5H-pyrido[2,3-b][1,5]benzodiazepin-5-one] | 91 | 
CCCCN1C(=O)c2cccnc2N(C)c2ccccc21 [Example 14, 6-Butyl-6,11-dihydro-11-methyl-5H-pyrido[2,3-b][1,5] benzodiazepin-5-one] | 75 | 
Cc1cc(C)c2c(n1)N(C)c1cc(C)c(C)cc1N(C)C2=O [Example 16, 6,11-Dihydro-2,4,6,8,9,11-hexamethyl-5H-pyrido[2,3-b][1,5]benzodiazepin-5-one] | 44 | 
CC(=O)N1c2ccccc2N(C)C(=O)c2cccnc21 [Example 18, 11-Acetyl-6,11-dihydro-6-methyl-5H-pyrido[2,3-b][1,5]benzodiazepin-5-one] | 29 | 
CSCN1C(=O)c2cccnc2N(CSC)c2cc(Cl)ccc21 [Example 20, 6,11-bis-(methylthiomethyl)-9-chloro-6,11-dihydro-5H-pyrido-[2,3-b][1,5]benzodiazepin-5-one] | 69 | 
CCN1C(=O)c2cccnc2N(CC)c2ccccc21 [Example 21, 6,11-Diethyl-6,11-dihydro-5H-pyrido[2,3-b][1,5]benzodiazepin-5-one] | 96 | 
CCN1c2ccccc2NC(=O)c2cccnc21 [Example 23, 6,11-Dihydro-11-ethyl-5H-pyrido[2,3-b][1,5]benzodiazepin-5-one] | 100 | 
CCN1c2ccccc2NC(=S)c2cccnc21 [Example 24, 6,11-Dihydro-11-ethyl-5H-pyrido[2,3-b][1,5]benzodiazepin-5-thione] |  | 100
CN1C(=O)c2cccnc2N(Cc2ccccc2)c2ccccc21 [Example 25, 6,11-Dihydro-11-benzyl-6-methyl-5H-pyrido[2,3-b][1,5]benzodiazepin-5-one] | 73 | 
CN1C(=O)c2cccnc2N(CC(=O)OC(C)(C)C)c2ccccc21 [Example 26, 6,11-Dihydro-11-(t-butoxycarbonyl)methyl-6-methyl-5H-pyrido[2,3-b][1,5] benzodiazepin-5-one] | 81 | 
CCOC(=O)CN1c2ccccc2N(C)C(=O)c2cccnc21 [Example 27, 6,11-Dihydro-11-(ethoxycarbonyl)methyl-6-methyl-5H-pyrido[2,3-b][1,5] benzodiazepin-5-one] | 64 | 
Cc1cc2c(cc1C)N(C)C(=O)c1cccnc1N2 [Example 28, 6,11-Dihydro-6,8,9-trimethyl-5H-pyrido[2,3-b][1,5]benzodiazepin-5-one] | 65 | 
